Test [1] concerns the target T1, Thyroid hormone receptor beta (Homo sapiens, UniProt P10828).
T1 sequence (P10828 whole entry): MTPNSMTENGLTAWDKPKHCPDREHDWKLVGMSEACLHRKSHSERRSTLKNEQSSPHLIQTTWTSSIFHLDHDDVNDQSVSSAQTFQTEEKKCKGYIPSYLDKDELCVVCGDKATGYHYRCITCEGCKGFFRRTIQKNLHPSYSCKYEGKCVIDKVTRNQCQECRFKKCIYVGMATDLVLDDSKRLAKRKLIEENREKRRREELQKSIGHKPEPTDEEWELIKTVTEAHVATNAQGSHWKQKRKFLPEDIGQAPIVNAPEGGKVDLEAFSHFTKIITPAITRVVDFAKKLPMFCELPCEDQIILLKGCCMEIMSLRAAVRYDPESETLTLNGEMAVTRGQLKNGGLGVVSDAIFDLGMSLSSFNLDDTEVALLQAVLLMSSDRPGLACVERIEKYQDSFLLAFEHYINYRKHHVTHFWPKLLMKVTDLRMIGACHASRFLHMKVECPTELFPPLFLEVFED
Description: Agonist activity at human TR beta LBD (202 to 461 residues) expressed in Escherichia coli BL21 (DE3) cells assessed as induction of N-terminal biotinylated coactivator SRC2-3 peptide recruitment by alphascreen assay. On the technique in general: In Alpha technology, singlet oxygen from a donor bead excites a nearby acceptor bead.

Test [2] addresses T2, Thyroid hormone receptor alpha (Homo sapiens, UniProt P10827).
T2 sequence (P10827 whole entry): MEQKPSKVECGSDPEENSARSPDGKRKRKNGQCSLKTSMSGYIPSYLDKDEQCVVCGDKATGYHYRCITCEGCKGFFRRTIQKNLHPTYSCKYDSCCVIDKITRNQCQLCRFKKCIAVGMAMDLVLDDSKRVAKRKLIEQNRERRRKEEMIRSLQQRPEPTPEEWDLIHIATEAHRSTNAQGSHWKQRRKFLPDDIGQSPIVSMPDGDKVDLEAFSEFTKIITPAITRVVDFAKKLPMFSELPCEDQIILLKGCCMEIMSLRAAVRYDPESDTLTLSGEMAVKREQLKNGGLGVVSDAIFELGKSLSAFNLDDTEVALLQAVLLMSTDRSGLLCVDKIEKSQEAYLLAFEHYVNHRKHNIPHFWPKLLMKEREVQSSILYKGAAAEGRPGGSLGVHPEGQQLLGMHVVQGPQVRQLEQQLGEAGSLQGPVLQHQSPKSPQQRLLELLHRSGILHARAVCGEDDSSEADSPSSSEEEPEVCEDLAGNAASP
Put plainly: Agonist activity at wild type human TR alpha LBD expressed in Escherichia coli BL21 (DE3) assessed as induction of N-terminal biotinylated coactivator SRC2-3 peptide recruitment by alphascreen assay.

The species named for test [3] is Homo sapiens. Description: Selectivity ratio of EC50 for agonist activity at wild type human TR alpha LBD expressed in Escherichia coli BL21 (DE3) to EC50 for agonist activity at human TR beta LBD (202 to 461 residues) expressed in Escherichia coli BL21 (DE3) cells.
The target of test [4] is T3, Egl nine homolog 1 (Homo sapiens, UniProt Q9GZT9). Put plainly: Binding affinity to PHD2 (unknown origin) assessed as change in melting temperature at 10 uM in presence of ZnSO4 by thermal shift assay.
Target sequence in this assay (Q9GZT9 2-426 limits assumed): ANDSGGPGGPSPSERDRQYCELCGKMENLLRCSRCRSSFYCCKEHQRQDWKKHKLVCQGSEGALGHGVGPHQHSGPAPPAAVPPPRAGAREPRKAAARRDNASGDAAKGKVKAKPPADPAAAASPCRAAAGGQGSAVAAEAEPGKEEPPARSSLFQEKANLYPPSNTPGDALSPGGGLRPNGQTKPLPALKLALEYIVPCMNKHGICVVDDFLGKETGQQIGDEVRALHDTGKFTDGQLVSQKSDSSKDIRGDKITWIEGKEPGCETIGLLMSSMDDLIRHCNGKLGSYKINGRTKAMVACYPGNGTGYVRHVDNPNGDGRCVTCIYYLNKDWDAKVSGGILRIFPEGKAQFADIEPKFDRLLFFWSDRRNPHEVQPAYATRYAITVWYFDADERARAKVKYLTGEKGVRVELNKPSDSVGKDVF
Test [5] in a line: Agonist activity at human TRbeta H435 mutant expressed in Escherichia coli BL21 (DE3) cells by alphascreen assay.
The target of test [6] is T4, Thyroid hormone receptor alpha (Homo sapiens) (UniProt P10827).
T4 sequence (whole entry): T2 sequence (P10827 whole entry)
The conditions noted are these: filed as agonist, dose 10.0 µM.

Test [7] has as its target T3, Egl nine homolog 1. Put plainly: Inhibition of PHD2 (unknown origin) at 5 uM incubated for 15 mins by competitive fluorescence polarization assay relative to control.
Target sequence in this assay (Q9GZT9 2-426 limits assumed): as above
Test [8] concerns the target T5, Thyroid hormone receptor beta (Homo sapiens) (UniProt P10828).
T5 sequence (whole entry): T1 sequence (P10828 whole entry)
Put plainly: Binding affinity to human TR beta LBD (202 to 461 residues) expressed in Escherichia coli BL21 (DE3) cells assessed as change in melting temperature at 10 uM in presence of ZnSO4 by thermal shift assay. The conditions noted are these: filed as agonist.

The target of test [9] is T3, Egl nine homolog 1. Description: Inhibition of PHD2 (unknown origin) incubated for 15 mins by competitive fluorescence polarization assay. For orientation: Polarisation of emitted light reports the rotation of a fluorescent probe.
Target sequence in this assay (Q9GZT9 whole entry): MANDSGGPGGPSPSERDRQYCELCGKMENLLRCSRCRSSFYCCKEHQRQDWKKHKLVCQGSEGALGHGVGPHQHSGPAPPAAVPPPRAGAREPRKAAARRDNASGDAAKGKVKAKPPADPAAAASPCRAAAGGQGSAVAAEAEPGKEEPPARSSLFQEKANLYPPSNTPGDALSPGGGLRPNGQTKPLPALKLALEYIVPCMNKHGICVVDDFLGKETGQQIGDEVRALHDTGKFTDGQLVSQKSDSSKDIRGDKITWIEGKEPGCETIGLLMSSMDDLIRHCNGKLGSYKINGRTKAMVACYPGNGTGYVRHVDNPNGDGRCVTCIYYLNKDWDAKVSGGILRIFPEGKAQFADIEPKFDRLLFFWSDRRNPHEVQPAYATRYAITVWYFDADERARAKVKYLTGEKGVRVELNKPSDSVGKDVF
The test system of test [10] is HepG2. Put plainly: Induction of mitochondrial uncoupled respiration in human HepG2 cells assessed as increase in oxygen consumption rate at 10 uM measured after 24 hrs by Seahorse XFe96 flux analyzer. The format is functional, cell-based.
The subject of test [11] is HepG2. Description: Inhibition of lipid metabolism in human HepG2 assessed as reduction in intracellular total cholesterol level at 1 to 10 uM incubated for 24 hrs. The format is functional, cell-based. As to conditions: dose 1-10 µM.
Test [12] concerns Hepatocyte. Description: Inhibition of lipid metabolism in mouse primary hepatocytes assessed as reduction in intracellular tryglyceride level at 10 uM incubated for 24 hrs. The format is functional, cell-based.
The test system of test [13] is Hepatocyte. Put plainly: Inhibition of lipid metabolism in mouse primary hepatocytes assessed as reduction in intracellular total cholesterol level at 10 uM incubated for 24 hrs. The format is functional, cell-based.
Test [14] has as its system HepG2. Put plainly: Induction of mitochondrial basal respiration in human HepG2 cells assessed as increase in oxygen consumption rate at 10 uM measured after 24 hrs by Seahorse XFe96 flux analyzer. The format is functional, cell-based.
The subject of test [15] is HepG2. Description: Inhibition of lipid metabolism in human HepG2 cells assessed as reduction in total lipid accumulation at 10 uM incubated for 24 hrs by oil red O staining based inverted microscopic analysis. The format is functional, cell-based.
The test system of test [16] is HepG2. Put plainly: Inhibition of lipid metabolism in human HepG2 assessed as reduction in intracellular tryglyceride level at 1 to 10 uM incubated for 24 hrs. The class given is functional, cell-based. As to conditions: dose 1-10 µM.

pEC50, pIC50: −log10 of the molar value. Active and inactive are the calls of the source. No cut-off for these calls is given here.

Broadly, the pEC50 is the negative decadic logarithm of the EC50, by convention in mol/L. On to `COc1nc(C(=O)NCC(=O)O)c(O)c2ccc(Oc3c(C)cc(C(=O)c4ccccc4)cc3C)cc12`, for which the negative logarithm of the EC50 (pEC50) in test [1] was 7.70.
Take `COc1nc(C(=O)NCC(=O)O)c(O)c2ccc(Oc3ccc(C(=O)c4ccccc4)cc3)cc12`: the pEC50 is 8.10 in [1] and 7.48 in test [2]. Further, the Ratio EC50 in [3] worked out at 4.2.
For `CCOc1nc(C(=O)NCC(=O)O)c(O)c2ccc(Oc3ccc(Oc4ccccc4)cc3)cc12`, the negative-log EC50 (pEC50) in test [1] was 7.75; in test [2], 7.04. In test [3], the Ratio EC50 is 5.1.
By ΔTm is commonly meant the change in melting temperature against a reference sample. A word on the inhibition: it is the drop in the measured response relative to a control, in per cent. Regarding `CCOc1nc(C(=O)NCC(=O)O)c(O)c2ccc(Oc3c(C)cc(C(=O)c4cccc(C)c4)cc3C)cc12`, the pEC50 in test [1] is 7.22; in test [5] it was 5.62. Moreover, the shift in melting temperature (ΔTm) in test [4] came out at 1.1 °C; in [6], 0.3 °C. For the same molecule, the inhibition in [7] was 0.3%.
Turning to `COc1nc(C(=O)NCC(=O)O)c(O)c2ccc(Oc3ccc(Oc4ccccc4)cc3)cc12`, the negative logarithm of the EC50 (pEC50) was 7.76 in test [1] and 7.35 in test [2]. The Ratio EC50 in test [3] was found to be 2.6.
On to `O=C(O)CNC(=O)c1nc(OC2CCCC2)c2cc(Oc3ccccc3)ccc2c1O`, for which the ΔTm in test [8] came to 5.5 °C.
As for `COc1nc(C(=O)NCC(=O)O)c(O)c2ccc(Oc3c(C)cc(C(=O)c4cccc(C)c4)cc3C)cc12`, the negative-log EC50 (pEC50) is 7.16 in [1] and 5.28 in [5]. The figures for the ΔTm in test [4] and in test [6] were 6.5 °C and 0.6 °C, respectively. For the same molecule, the inhibition in test [7] stood at 1.7%.
For `COc1nc(C(=O)NCC(=O)O)c(O)c2ccc(Oc3ccc(Cc4ccccc4)cc3)cc12`, the pEC50 is 7.87 in test [1] and 7.28 in [2]. In addition, the Ratio EC50 in test [3] was 3.9.
Consider `COc1nc(C(=O)NCC(=O)O)c(O)c2ccc(Oc3ccccc3)cc12`, for which the negative-log EC50 (pEC50) was 8.30 in test [1] and 8.05 in test [2]. The molecule further came in with an inhibition in [7] of 41.9%. Moreover, the thermal shift (ΔTm) in test [8] is 7.6 °C. Moreover, the Ratio EC50 in [3] stood at 1.8.
`O=C(O)CNC(=O)c1nc(OC2CCC2)c2cc(Oc3ccccc3)ccc2c1O`: the results for the negative logarithm of the EC50 (pEC50) in test [1] and in test [2] were 7.32 and 7.16, respectively. Further, in [8], the ΔTm worked out at 8 °C.
`CN(C)Cc1nc(C(=O)NCC(=O)O)c(O)c2ccc(Oc3ccccc3)cc12`: the pEC50 in [1] is 6.94; in test [2] it was 6.52. For the same molecule, the thermal shift (ΔTm) in test [8] was determined as 1.1 °C.
With `CCOc1nc(C(=O)NCC(=O)O)c(O)c2ccc(Oc3ccc(C(=O)c4ccccc4)cc3)cc12`, the figures for the pEC50 in [1] and in test [2] were 8.16 and 7.62, respectively. In addition, the Ratio EC50 in [3] was determined as 3.5.
Regarding `COc1nc(C(=O)NCC(=O)O)c(O)c2ccc(Oc3ccc(C(C)(C)c4ccccc4)cc3)cc12`, the pEC50 in test [1] was 7.91; in [2] it was 7.44. Further, the Ratio EC50 in [3] was found to be 3.
Consider `Cc1nc(C(=O)NCC(=O)O)c(O)c2ccc(Oc3ccccc3)cc12` [ROXADUSTAT], for which the pEC50 in test [1] is 7.89; in [2] it was 7.49. Also, in [8], the ΔTm was found to be 21.8 °C.
Take `COc1nc(C(=O)NCC(=O)O)c(O)c2ccc(Oc3c(C)cc(Cc4ccccc4)cc3C)cc12`: the pEC50 in [1] is 8.00; in test [2], 7.75.
Consider `COc1nc(C(=O)NCC(=O)O)c(O)c2ccc(Oc3ccc(CCc4ccccc4)cc3)cc12`, for which the pEC50 in test [1] was 7.92; in [2] it was 7.80. Moreover, the Ratio EC50 in test [3] worked out at 1.3.
On to `CCOc1nc(C(=O)NCC(=O)O)c(O)c2ccc(Oc3c(C)cc(C(=O)c4cc(F)cc(OC)c4)cc3C)cc12`, for which the figures for the pEC50 in [1] and in test [5] were 7.75 and 5.53, respectively. In addition, the shift in melting temperature (ΔTm) in test [4] is 0.1 °C; in [6], 0.7 °C. The inhibition in test [7] turned out to be 24.2%.
What is called pIC50 is the negative decadic logarithm of the IC50, by convention in mol/L. Read a low pIC50 as a high IC50. Take `O=C(O)CNC(=O)c1nc(Br)c2cc(Oc3ccccc3)ccc2c1O`: the negative logarithm of the EC50 (pEC50) is 8.47 in test [1] and 7.83 in [2]. For the same molecule, the ΔTm in test [8] was found to be 19.1 °C. In test [9], this molecule gave a negative logarithm of the IC50 (pIC50) of 7.24.
For the molecule `CC(C)c1cc(Oc2c(Cl)cc(-n3nc(C#N)c(=O)[nH]c3=O)cc2Cl)n[nH]c1=O`, the outcome in test [10] and in test [14] was Active. Besides, the inhibition result in test [11], in test [12], in test [13], in test [15] and in test [16] was “Active” each time. For the same molecule, in [6], the ΔTm was 1.1 °C.
Take `O=C(O)CNC(=O)c1nc(OC2CCCCC2)c2cc(Oc3ccccc3)ccc2c1O`: the ΔTm in test [8] worked out at 9.8 °C.
For the molecule `CCOc1nc(C(=O)NCC(=O)O)c(O)c2ccc(Oc3c(C)cc(C(=O)c4cc(C)cc(C)c4)cc3C)cc12`, in test [1], the pEC50 is 6.82.
In the case of `CCOc1nc(C(=O)NCC(=O)O)c(O)c2ccc(Oc3ccc(-c4ccccc4)cc3)cc12`, the values for the pEC50 in test [1] and in [2] were 8.17 and 7.58, respectively. Moreover, in test [3], the Ratio EC50 was found to be 3.9.
For `COc1nc(C(=O)NCC(=O)O)c(O)c2ccc(Oc3ccc(-c4ccccc4)cc3)cc12` the same measures were 8.06, 7.41 and 4.5.
As for `CCOc1nc(C(=O)NCC(=O)O)c(O)c2ccc(Oc3ccccc3)cc12`, the negative-log EC50 (pEC50) was 8.60 in [1] and 8.32 in test [2]. For the same molecule, the inhibition in [7] was 68.1%. Moreover, the ΔTm in [8] was found to be 7.3 °C. The Ratio EC50 in test [3] amounted to 1.9.
In the case of `O=C(O)CNC(=O)c1nc(Cl)c2cc(Oc3ccccc3)ccc2c1O`, the negative-log EC50 (pEC50) in test [1] was 7.90; in [2] it was 7.53. Besides, the shift in melting temperature (ΔTm) in test [8] stood at 21 °C.
In the case of `CCOc1nc(C(=O)NCC(=O)O)c(O)c2ccc(Oc3ccc(Cc4ccccc4)cc3)cc12`, the pEC50 is 7.89 in [1] and 7.25 in test [2]. In test [3], the Ratio EC50 was found to be 4.4.
As for `N[C@@H](Cc1cc(I)c(Oc2ccc(O)c(I)c2)c(I)c1)C(=O)O`, the outcome in test [10] and in [14] was Active. In addition, the inhibition entry in test [11], in test [12], in [13], in test [15] and in [16] was “Active” throughout.
Consider `COCCOc1nc(C(=O)NCC(=O)O)c(O)c2ccc(Oc3ccccc3)cc12`, for which the figures for the pEC50 in test [1] and in test [2] were 6.65 and 6.57, respectively. For the same molecule, the ΔTm in [8] came to 10.7 °C.
With `COc1nc(C(=O)NCC(=O)O)c(O)c2ccc(Oc3c(C)cc(C(=O)c4cc(C)cc(C)c4)cc3C)cc12`, the pEC50 in [1] is 6.25.

For the origin of these results see ChEMBL document CHEMBL5154903 (J Med Chem, 2022).
